Each block holds one compound with its values, some of them ahead of it.
Tests used:
Dengue virus [1] = assay: Antiviral activity against DENV; format: functional, organism-based
Zika virus = assay: Antiviral activity against Zika virus; format: functional, organism-based
NS5 = NS5 (Zika virus, UniProt A0A143MHK7); assay: Inhibition of Zika virus RNA-dependent RNA polymerase
dengue virus type 1 [2] = assay: Antiviral activity against DENV-1 infected hamster BHK-21 cells assessed as reduction in viral replication incubated for 4 hrs; format: functional, organism-based
dengue virus type 2 [3] = assay: Antiviral activity against DENV-2 infected hamster BHK-21 cells assessed as reduction in viral replication incubated for 4 hrs; format: functional, organism-based
dengue virus type 3 [4] = assay: Antiviral activity against DENV-3 infected hamster BHK-21 cells assessed as reduction in viral replication incubated for 4 hrs; format: functional, organism-based
dengue virus type 4 [5] = assay: Antiviral activity against DENV-4 infected hamster BHK-21 cells assessed as reduction in viral replication incubated for 4 hrs; format: functional, organism-based
dengue virus type 2 [6] = assay: Antiviral activity against DENV-2 incubated for 72 hrs by MTT assay; format: functional, organism-based
[7] = Toxicity in rat assessed as animal survival at 15 to 30 mg/kg, iv measured for 7 days; format: organism-based; details: in vivo, dose 15-30 mg/kg, time 7 day, read-out: Activity
[8] = Inhibition of DENV RNA polymerase; set-up: species or system Dengue virus
[9] = Inhibition of DENV RNA-dependent RNA polymerase activity; set-up: species or system Dengue virus
dengue virus type 1 [10] = assay: Antiviral activity against DENV-1 RNA-dependent RNA polymerase infected in African green monkey Vero cells assessed as reduction in viral replication incubated for 2 days by qRT-PCR analysis; format: functional, organism-based; details: 48 h
dengue virus type 2 [11] = assay: Antiviral activity against DENV-2 RNA-dependent RNA polymerase infected in African green monkey Vero cells assessed as reduction in viral replication incubated for 2 days by qRT-PCR analysis; format: functional, organism-based; details: 48 h
dengue virus type 3 [12] = assay: Antiviral activity against DENV-3 RNA-dependent RNA polymerase infected in African green monkey Vero cells assessed as reduction in viral replication incubated for 2 days by qRT-PCR analysis; format: functional, organism-based; details: 48 h
dengue virus type 4 [13] = assay: Antiviral activity against DENV-4 RNA-dependent RNA polymerase infected in African green monkey Vero cells assessed as reduction in viral replication incubated for 2 days by qRT-PCR analysis; format: functional, organism-based; details: 48 h
dengue virus type 2 [14] = assay: Antiviral activity against DENV-2 RNA-dependent RNA polymerase; format: functional, organism-based
dengue virus type 2 [15] = assay: Antiviral activity against DENV-2; format: functional, organism-based
[16] = Binding affinity to DENV-2 RNA-dependent RNA polymerase assessed as dissociation constant using GTP as substrate; set-up: species or system dengue virus type 2
[17] = Inhibition of DENV-3 full length NS5/RNA-dependent RNA polymerase; set-up: species or system dengue virus type 3
dengue virus type 1 [18] = assay: Antiviral activity against DENV-1 NS5 infected in African green monkey Vero cells; format: functional, organism-based
dengue virus type 2 [19] = assay: Antiviral activity against DENV-2 NS5 infected in African green monkey Vero cells; format: functional, organism-based
dengue virus type 3 [20] = assay: Antiviral activity against DENV-3 NS5 infected in African green monkey Vero cells; format: functional, organism-based
THP-1 = assay: Cytotoxicity against human THP-1 cells
HepG2 = assay: Cytotoxicity against human HepG2 cells
Dengue virus [21] = assay: Antiviral activity DENV infected in African green monkey Vero 76 cells assessed as virus-induced cytopathic effect; format: functional, organism-based
[22] = Inhibition of Dengue virus RNA N7 methyltransferase
[23] = Inhibition of Zika virus RNA N7 methyltransferase

NS5, sequence (A0A143MHK7 whole entry): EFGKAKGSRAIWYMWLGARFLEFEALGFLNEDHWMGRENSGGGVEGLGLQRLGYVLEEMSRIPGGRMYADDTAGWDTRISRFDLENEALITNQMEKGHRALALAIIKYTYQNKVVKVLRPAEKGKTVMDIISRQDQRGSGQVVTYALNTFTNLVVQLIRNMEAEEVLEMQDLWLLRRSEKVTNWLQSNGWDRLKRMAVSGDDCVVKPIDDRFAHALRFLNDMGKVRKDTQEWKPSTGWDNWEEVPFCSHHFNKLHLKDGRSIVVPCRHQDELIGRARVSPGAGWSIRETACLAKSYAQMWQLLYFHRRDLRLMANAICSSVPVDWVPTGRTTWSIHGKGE

- EC50 (Dengue virus [1]): 13 µM
- EC50 (Zika virus): 2.2 µM
- IC50 (NS5): 0.5 µM
Compound: Nc1ncnc2c1c(-c1cc3ccccc3o1)cn2[C@@H]1O[C@H](CO)[C@@H](O)[C@H]1O

- IC50 (dengue virus type 1 [2]): 2.32 µM
- IC50 (dengue virus type 2 [3]): 2.08 µM
- IC50 (dengue virus type 3 [4]): 1.66 µM
- IC50 (dengue virus type 4 [5]): 1.9 µM
Compound: IVERMECTIN

- EC50 (Dengue virus [21]): 0.057 µM
- IC50 [22]: 8.4 µM
- IC50 [23]: 1.7 µM
Compound: COc1nc(N)ncc1-c1cn(COCCO)cn1

The next lines start with the compound.

Compound: CN[C@@H]1CC[C@@H]2CN(c3c(F)c(N)c4c(=O)c(C(=O)O)cn(C5CC5)c4c3F)C[C@@H]21
- EC50 (dengue virus type 2 [6]): 9.2 µM

Compound: C[C@@]1(O)[C@H](O)[C@@H](CO)O[C@H]1n1ccc(N)nc1=O
- survival at 168 h [7]: 60%
- IC50 [8]: 11.2 µM
- IC50 [9]: 19.3 µM
- EC50 (dengue virus type 1 [10]): 2.9 µM
- EC50 (dengue virus type 2 [11]): 2.8 µM
- EC50 (dengue virus type 3 [12]): 2.4 µM
- EC50 (dengue virus type 4 [13]): 2.6 µM

Compound: CNC1CN(c2c(F)c(N)c3c(=O)c(C(=O)O)cn(C4CC4)c3c2Cl)CC1OC (configuration not stated)
- EC50 (dengue virus type 2 [14]): 3.9 µM

Compound: CN1CCN(c2ccc(C(=O)Nc3n[nH]c4ccc(Cc5cc(F)cc(F)c5)cc34)c(NC3CCOCC3)c2)CC1 [ENTRECTINIB]
- EC50 (dengue virus type 2 [15]): 2.43 µM
- Kd [16]: 166 µM

Compound: CC(=O)Oc1ccc2oc(=O)sc2c1
- IC50 [17]: 287 µM
- EC50 (dengue virus type 1 [18]): 29.5 µM
- EC50 (dengue virus type 2 [19]): 6 µM
- EC50 (dengue virus type 3 [20]): 29.4 µM

Compound: OC[C@H]1O[C@@H](n2c3ccc(Cl)cc3c3c(-c4ccco4)ncnc32)[C@H](O)[C@@H]1O
- CC50 (THP-1): 1.56 µM
- CC50 (HepG2): 0.17 µM

Reference: ChEMBL document CHEMBL5150000, “Insights on Dengue and Zika NS5 RNA-dependent RNA polymerase (RdRp) inhibitors” (Eur J Med Chem, 2021)
